From publication PMC7211202 (Investigational New Drugs, 2019)
Where “and” joins values, the source holds several entries; their conditions need not be identical. Equal entries are not always repeated.

Experiment: Patient incidence of adverse events (CTCAE version 4.0)
Format: in vivo
Source text: Each patient was monitored for 21 days for the occurrence of dose-limiting toxicities (DLTs), defined as febrile neutropenia, neutropenic infection, grade 4 neutropenia lasting >7 days, grade ≥ 3 thrombocytopenia lasting >7 days (solid tumors only), grade 3 thrombocytopenia with grade ≥ 2 bleeding (solid tumors only), grade 3 or 4 thrombocytopenia with grade > 1 bleeding (multiple myeloma only), grade 4 thrombocytopenia (solid tumors only), or grade 4 thrombocytopenia lasting >14 days (multiple myeloma only), or as grade ≥ 3 nausea, vomiting, or diarrhea after support; grade 3 fatigue lasting >7 days; any other grade ≥ 3 adverse event (AE); grade ≥ 3 kidney injury (multiple myeloma only), or treatment-related AEs not returning to grade ≤ 1 (solid tumors only) per Common Terminology Criteria for Adverse Events (CTCAE), version 4.0. The MTD was defined as the maximum dose, at which the probability of a DLT was ≤25% in Part 1A and ≤ 33% in Parts 1B and 1C. Treatment continued until disease progression, intolerable toxicity, or withdrawal of consent.
AEs were recorded for all enrolled patients.

[1] = 240-mg dose expansion, Other Solid (n = 16)
[2] = 240-mg dose expansion, Total (n = 68)
[3] = 240-mg dose expansion, WDLPS (n = 10)
[4] = 240-mg dose expansion, all patients

In the case of CC(C)[C@@H](CS(=O)(=O)C(C)C)N1C(=O)[C@@](C)(CC(=O)O)C[C@H](c2cccc(Cl)c2)[C@H]1c1ccc(Cl)cc1 [AMG 232], the “Serious, treatment-related AE: Hyperlipasemia (grade 3)” value (from here on “Serious … Hyperlipasemia (grade 3)”) [1] is reported as 0 n (%), the “Serious, treatment-related AE: Nausea (grade 3)” value [1] is reported as 0 n (%) and the “Serious, treatment-related AE: Pulmonary embolism (grade 3)” value (“Serious … Pulmonary embolism (grade 3)” for short) [1] is reported as 0 n (%). For the same compound, the “Serious, treatment-related AE: Vomiting (grade 3)” value (“Serious … Vomiting (grade 3)” for short) [1] was 0 n (%), the “Treatment-related AE: Anemia” value [1] was 3 (19) n (%) and the “Treatment-related AE: Asthenia” value [1] was 2 (13) n (%). The “Treatment-related AE: Decrease appetite” value [1] was 4 (25) n (%), the “Treatment-related AE: Diarrhea” value [1] was 8 (50) n (%) and the “Treatment-related AE: Dysgeusia” value [1] was 2 (13) n (%). The “Treatment-related AE: Fatigue” value [1] was 6 (38) n (%), the “Treatment-related AE: Nausea” value [1] was 11 (69) n (%) and the “Treatment-related AE: Neutropenia” value [1] was 1 (6) n (%). The “Treatment-related AE: Thrombocytopenia” value [1] was 2 (13) n (%), the “Treatment-related AE: Vomiting” value [1] was 8 (50) n (%) and the “Patients with any treatment-emergent AE” value [2] was 67 (99%) n (%) and 67 (99) n (%). For the same compound, the “Patients with any treatment-emergent serious AE” value [2] was 29 (43%) n (%) and 29 (43) n (%), the “Patients with any treatment-related AE, Grade 3” value (shortened to “Patients … Grade 3”) [2] was 25 (37) n (%) and the “Patients with any treatment-related AE, Grade 4” value (“Patients … Grade 4” below) [2] was 8 (12) n (%). For the same compound, the “Patients with any treatment-related AE, Grade 5” value (from here on “Patients … Grade 5”) [2] was 0 n (%), the “Serious, treatment-related AE: Dehydration (grade 3)” value [2] was 1 (2) n (%) and the “Serious, treatment-related AE: Diarrhea (grade 3)” value [2] was 1 (2) n (%). For the same compound, the “Serious, treatment-related AE: Hyperamylasemia (grade 3)” value [2] was 1 (2) n (%), the “Serious … Hyperlipasemia (grade 3)” value [2] was 1 (2) n (%) and the “Serious, treatment-related AE: Nausea (grade 3)” value [2] was 1 (2) n (%). The “Serious … Pulmonary embolism (grade 3)” value [2] was 1 (2) n (%), the “Serious … Vomiting (grade 3)” value [2] was 3 (4) n (%) and the “Treatment-related AE: Anemia” value [2] was 10 (15) n (%). For the same compound, the “Treatment-related AE: Asthenia” value [2] was 9 (13) n (%), the “Treatment-related AE: Decrease appetite” value [2] was 28 (41) n (%) and the “Treatment-related AE: Diarrhea” value [2] was 46 (68) n (%). The “Treatment-related AE: Dysgeusia” value [2] was 9 (13) n (%), the “Treatment-related AE: Fatigue” value [2] was 32 (47) n (%) and the “Treatment-related AE: Nausea” value [2] was 46 (68) n (%). For the same compound, the “Treatment-related AE: Neutropenia” value [2] was 12 (18) n (%), the “Treatment-related AE: Thrombocytopenia” value [2] was 14 (21) n (%) and the “Treatment-related AE: Vomiting” value [2] was 32 (47) n (%). For the same compound, the “Patients with any serious, treatment-related AE” value [3] was 2 (20) n (%), the “Patients with any treatment-emergent AE” value [3] was 10 (100) n (%) and the “Patients with any treatment-emergent serious AE” value [3] was 5 (50) n (%). For the same compound, the “Patients with any treatment-related AE” value [3] was 10 (100) n (%), the “Patients … Grade 3” value [3] was 6 (60) n (%) and the “Patients … Grade 4” value [3] was 3 (30) n (%). For the same compound, the “Patients … Grade 5” value [3] was 0 n (%), the “Serious, treatment-related AE: Dehydration (grade 3)” value [3] was 1 (10) n (%) and the “Serious, treatment-related AE: Diarrhea (grade 3)” value [3] was 0 n (%). For the same compound, the “Serious, treatment-related AE: Hyperamylasemia (grade 3)” value [3] was 0 n (%), the “Serious … Hyperlipasemia (grade 3)” value [3] was 0 n (%) and the “Serious, treatment-related AE: Nausea (grade 3)” value [3] was 0 n (%). For the same compound, the “Serious … Pulmonary embolism (grade 3)” value [3] was 1 (10) n (%), the “Serious … Vomiting (grade 3)” value [3] was 0 n (%) and the “Treatment-related AE: Anemia” value [3] was 5 (50) n (%). For the same compound, the “Treatment-related AE: Asthenia” value [3] was 0 n (%), the “Treatment-related AE: Decrease appetite” value [3] was 7 (70) n (%) and the “Treatment-related AE: Diarrhea” value [3] was 9 (90) n (%). For the same compound, the “Treatment-related AE: Dysgeusia” value [3] was 1 (10) n (%), the “Treatment-related AE: Fatigue” value [3] was 8 (80) n (%) and the “Treatment-related AE: Nausea” value [3] was 10 (100) n (%). The “Treatment-related AE: Thrombocytopenia” value [3] was 6 (60) n (%), the “Treatment-related AE: Vomiting” value [3] was 7 (70) n (%) and the “Treatment-emergent AE: anemia” value [4] was 25%. For the same compound, the “Treatment-emergent AE: decreased appetite” value [4] was 41%, the “Treatment-emergent AE: diarrhea” value [4] was 72% and the “Treatment-emergent AE: fatigue” value [4] was 53%. For the same compound, the “Treatment-emergent AE: nausea” value [4] was 72%, the “Treatment-emergent AE: thrombocytopenia” value [4] was 24% and the “Treatment-emergent AE: vomiting” value [4] was 59%. For the same compound, the “Treatment-related AE: Diarrhea” value [4] was 68%, the “Treatment-related AE: Fatigue” value [4] was 47% and the “Treatment-related AE: Nausea” value [4] was 68%. The “Treatment-related AE: Thrombocytopenia” value [4] was 21%, the “Treatment-related AE: Vomiting” value [4] was 47% and the “Treatment-related AE: decreased appetite” value [4] was 41%. The “Patients with fatal AEs while on study” value (240-mg dose expansion, two with disease progression and one with physical deterioration) was “Three”, the “AE resulting in treatment discontinuation: febrile neutropenia” value (dose escalation) was 1 n and the “AE resulting in treatment discontinuation: neutropenia” value (dose escalation) was 2 n. For the same compound, the “AE resulting in treatment discontinuation: thrombocytopenia” value (dose escalation) was 5 n, the “Patients with AEs resulting in treatment discontinuation” value (dose escalation) was “eight” and the “Patients with fatal AEs of disease progression while on study” value (dose escalation) was “Four”. For the same compound, the “Patients with any treatment-emergent AE” value (dose escalation, 15 mg (n = 3)) was 1 (33) n (%), the “Patients with any treatment-emergent serious AE” value (dose escalation, 15 mg (n = 3)) was 1 (33) n (%) and the “Patients with any treatment-related AE” value (dose escalation, 15 mg (n = 3)) was 1 (33) n (%). The “Patients … Grade 3” value (dose escalation, 15 mg (n = 3)) was 0 n (%), the “Patients … Grade 4” value (dose escalation, 15 mg (n = 3)) was 0 n (%) and the “Patients … Grade 5” value (dose escalation, 15 mg (n = 3)) was 0 n (%). For the same compound, the “Patients with any treatment-related serious AE” value (dose escalation, 15 mg (n = 3)) was 0 n (%), the “Treatment-related AE: Abdominal pain” value (dose escalation, 15 mg (n = 3)) was 0 n (%) and the “Treatment-related AE: Anemia” value (dose escalation, 15 mg (n = 3)) was 0 n (%). For the same compound, the “Treatment-related AE: Asthenia” value (dose escalation, 15 mg (n = 3)) was 0 n (%), the “Treatment-related AE: Decrease appetite” value (dose escalation, 15 mg (n = 3)) was 0 n (%) and the “Treatment-related AE: Diarrhea” value (dose escalation, 15 mg (n = 3)) was 0 n (%). The “Treatment-related AE: Dysgeusia” value (dose escalation, 15 mg (n = 3)) was 0 n (%), the “Treatment-related AE: Fatigue” value (dose escalation, 15 mg (n = 3)) was 1 (33) n (%) and the “Treatment-related AE: Myalgia” value (dose escalation, 15 mg (n = 3)) was 0 n (%). For the same compound, the “Treatment-related AE: Nausea” value (dose escalation, 15 mg (n = 3)) was 0 n (%), the “Treatment-related AE: Neutropenia” value (dose escalation, 15 mg (n = 3)) was 0 n (%) and the “Treatment-related AE: Thrombocytopenia” value (dose escalation, 15 mg (n = 3)) was 0 n (%). For the same compound, the “Treatment-related AE: Upper abdominal pain” value (dose escalation, 15 mg (n = 3)) was 0 n (%), the “Treatment-related AE: Vomiting” value (dose escalation, 15 mg (n = 3)) was 0 n (%) and the “Treatment-related serious AE: Abdominal pain (grade 2)” value (dose escalation, 15 mg (n = 3)) was 0 n (%). The “Treatment-related serious AE: Dehydration (grade 2)” value (dose escalation, 15 mg (n = 3)) was 0 n (%), the “Treatment-related serious AE: Diarrhea” value (dose escalation, 15 mg (n = 3)) was 0 n (%) and the “Treatment-related serious AE: Diarrhea, Grade 2” value (dose escalation, 15 mg (n = 3)) was 0 n (%). For the same compound, the “Treatment-related serious AE: Diarrhea, Grade 3” value (dose escalation, 15 mg (n = 3)) was 0 n (%), the “Treatment-related serious AE: Febrile neutropenia (grade 3)” value (dose escalation, 15 mg (n = 3)) was 0 n (%) and the “Treatment-related serious AE: Hematemesis (grade 3)” value (dose escalation, 15 mg (n = 3)) was 0 n (%). The “Treatment-related serious AE: Nausea (grade 3)” value (dose escalation, 15 mg (n = 3)) was 0 n (%), the “Treatment-related serious AE: Neutropenia (grade 4)” value (dose escalation, 15 mg (n = 3)) was 0 n (%) and the “Treatment-related serious AE: Non-cardiac chest pain (grade 3)” value (dose escalation, 15 mg (n = 3)) was 0 n (%). For the same compound, the “Treatment-related serious AE: Thrombocytopenia (grade 4)” value (dose escalation, 15 mg (n = 3)) was 0 n (%), the “Treatment-related serious AE: Vomiting” value (dose escalation, 15 mg (n = 3)) was 0 n (%) and the “Treatment-related serious AE: Vomiting, Grade 2” value (dose escalation, 15 mg (n = 3)) was 0 n (%). For the same compound, the “Treatment-related serious AE: Vomiting, Grade 3” value (dose escalation, 15 mg (n = 3)) was 0 n (%), the “Patients with any treatment-emergent AE” value (dose escalation, 30 mg (n = 3)) was 3 (100) n (%) and the “Patients with any treatment-emergent serious AE” value (dose escalation, 30 mg (n = 3)) was 0 n (%). The “Patients with any treatment-related AE” value (dose escalation, 30 mg (n = 3)) was 1 (33) n (%), the “Patients … Grade 3” value (dose escalation, 30 mg (n = 3)) was 0 n (%) and the “Patients … Grade 4” value (dose escalation, 30 mg (n = 3)) was 0 n (%). The “Patients … Grade 5” value (dose escalation, 30 mg (n = 3)) was 0 n (%), the “Patients with any treatment-related serious AE” value (dose escalation, 30 mg (n = 3)) was 0 n (%) and the “Treatment-related AE: Abdominal pain” value (dose escalation, 30 mg (n = 3)) was 0 n (%). The “Treatment-related AE: Anemia” value (dose escalation, 30 mg (n = 3)) was 0 n (%), the “Treatment-related AE: Asthenia” value (dose escalation, 30 mg (n = 3)) was 0 n (%) and the “Treatment-related AE: Decrease appetite” value (dose escalation, 30 mg (n = 3)) was 0 n (%). For the same compound, the “Treatment-related AE: Diarrhea” value (dose escalation, 30 mg (n = 3)) was 1 (33) n (%), the “Treatment-related AE: Dysgeusia” value (dose escalation, 30 mg (n = 3)) was 0 n (%) and the “Treatment-related AE: Fatigue” value (dose escalation, 30 mg (n = 3)) was 1 (33) n (%). The “Treatment-related AE: Myalgia” value (dose escalation, 30 mg (n = 3)) was 0 n (%), the “Treatment-related AE: Nausea” value (dose escalation, 30 mg (n = 3)) was 1 (33) n (%) and the “Treatment-related AE: Neutropenia” value (dose escalation, 30 mg (n = 3)) was 0 n (%). The “Treatment-related AE: Thrombocytopenia” value (dose escalation, 30 mg (n = 3)) was 0 n (%), the “Treatment-related AE: Upper abdominal pain” value (dose escalation, 30 mg (n = 3)) was 0 n (%) and the “Treatment-related AE: Vomiting” value (dose escalation, 30 mg (n = 3)) was 1 (33) n (%). The “Treatment-related serious AE: Abdominal pain (grade 2)” value (dose escalation, 30 mg (n = 3)) was 0 n (%).
